# Tests used:
# [1] = tested on: C. autoethanogenum; experiment: Toxicity to C. autoethanogenum by batch fermentation using syngas substrate, optical density; format: cell-based, Clostridium autoethanogenum; conditions: for O.D. Response of Various Inhibitors on C. autoethanogenum: Table 21, one value per compound; for O.D. Response to Various Inhibitors: duplicates A and B, amount not given
# Protocol: In this example various crotonate-like compounds on are evaluated for toxicity to C. autoethanogenum by batch fermentation using syngas substrate. The batch fermentations are conducted by anoxically filling 100 mL serum bottles with 10 mL of media having the composition given in Tables 12 and 13. Duplicate runs are conducted for each concentration. The compounds are: • C-1 Ethyl 4,4,4-trifluoro-3-(trifluoromethyl)crotonate • C-4 4,4,4-Trifluorocrotonamide • C-9 Ethyl 4,4,4-Trifluoro-3-(amino)crotonate • C-18 3 trifluoromethyl-4-methoxybenzoate.
# Each bottle is inoculated with 1.0 mL of seed culture inoculum from an active fermenter using syngas substrate and containing Clostridium autoethanogenum, which inoculum has an OD of about 4.92 (which upon a 10 times dilution provides a starting OD for the fermentation of about 0.49). The bottles are gased with syngas to about 100 kilopascals and maintained at a temperature of 37° C. The bottles are regassed with syngas every 8 to 12 hours. The syngas has the approximate composition set forth in Examples 6 to 10. Twenty four hours after inoculation of the bottles with the bacteria, the compounds are added to different bottles as a solution in 50 μL of N-methylpyrrolidone in the amounts indicated in Tables 20 and 21. The fermentation process is allowed to progress at 37° C. At selected intervals of time, bacterial growth is measured by reading the OD of the fermentation liquid using a Thermo Spectronic Genesys 20 spectrophotometer. Optical density is measured by anoxically removing an aliquot of fermentation liquid and adding it to a disposable cuvette. OD's ranging between 0.01 and 0.4 are measured using fermentation liquid directly, while OD's greater than 0.4 are measure after performing a 1/10 dilution with water.
# [2] = tested on: Clostridium tyrobutyricum; experiment: Balch tube batch growth of strict butyrogen Clostridium tyrobutyricum on fructose, optical density; format: cell-based; conditions: added 21 h after inoculation
# Protocol: Similar experiments were conducted to make a preliminary determination as to which of the crotonate and crotonate-like compounds would act as butyrogen retardants. For this purpose the selected compounds were tested again in a series of batch experiments to determine the growth response of butyrogens to the presence of the compound at varying concentrations. The batch experiments were all conducted by anoxically filling a 20 ml Balch tube with 5 ml of a fermentation medium having the composition given in Tables 2 and 3. The media included 0.5 v/v final concentration of a fructose substrate. For each of the crotonate concentrations tested, duplicate test tubes were prepared.
# Each tube was inoculated with 0.5 ml seed culture inoculum of the strict butyrogen Clostridium tyrobutyricum. The tubes were maintained at a temperature of 37° C. Twenty one hours after the inoculation of the tube with the bacteria, the different compounds from Table 1 were added to different tubes in the amounts indicated in Table 6. This was at a time of early to mid-log phase growth for the bacteria. Each fermentation of the bacteria in the media at the different concentration of crotonate derivatives were allowed to progress and were monitored to determine the bacteria growth at selected intervals of time varying from approximately 20 hours to 54 hours. Growth at the intervals was measured by reading the optical density (OD) of the fermentation liquid. Optical density was measured as described in Example 1. The ability of a tube fermentation at a particular concentration of crotonate derivative to reach a predetermined optical density was recorded in Table 6. Table 6 indicates the presence of bacterial growth to an OD of approximately 1.8 or above with a “+”, and to an optical density in a range of 0.7 to 1.5 as a “+/−”, and indicates the failure of bacterial growth to reach an optical density of approximately 0.7 as a “−”.
# [3] = tested on: C. autoethanogenum; experiment: Balch tube batch growth of homoacetogen C. autoethanogenum on fructose, optical density; format: cell-based; conditions: added 21 h after inoculation
# Protocol: These compounds were first tested to determine their effect on a known homoacetogen. Each compound was tested in a series of batch experiments to determine the growth response of a homoacetogen to the presence of the compound at varying concentrations. The batch experiments were all conducted by anoxically filling a Balch tube with 5 ml of a fermentation medium having the composition given in Tables 2 and 3. To expedite results, these batch experiments used fructose as the growth nutrient source for bacteria. Thus, the media included a 5 g/L of fructose.
# Each tube was inoculated with 0.5 ml of the same strain of C. autoethanogenum bacteria seed culture inoculum. The tubes were maintained at a temperature of 37° C. Twenty one hours after the inoculation of the tube with the bacteria, the different crotonate derivatives from Table 1 were added to different tubes in the amounts indicated in Table 4 This was at a time of early to mid-log phase growth for the bacteria. Each fermentation of the bacteria in the media at the different concentration of crotonate derivatives were allowed to progress and were monitored to determine the bacteria growth at selected intervals of time varying from approximately 20 hours to 190 hours. Growth at the intervals was measured by reading the optical density (OD) of the fermentation liquid. Optical density was measured using a Spectronic Spec 20 (Thermo Spectronic) at a wavelength of 600 nm. The OD of the Balch tube culture was measured directly in the tube using absorbance mode on the Spec 20 machine. The machine was set to zero absorbance by first measuring and adjusting the setting to zero absorbance using media only as a blank. This process was repeated at each indicated time point throughout the experiment. The ability of a tube fermentation at a particular concentration of crotonate derivative to reach a predetermined optical density was recorded in Table 4. Table 4 indicates the presence of bacterial growth to an OD of approximately 2 or above with a “+”, and to an optical density in a range of 0.5 to 1.5 as a “+/−”, and indicates the failure of bacterial growth to reach an optical density of approximately 0.5 as a “−”.
# [4] = 0 Hours, added 24 h after inoculation
# [5] = 2.5 Hours, added 24 h after inoculation
# [6] = 6.5 Hours, added 24 h after inoculation
# [7] = 24.5 Hours, added 24 h after inoculation
compound,measurement,setting,value
3 trifluoromethyl-4-methoxybenzoate [Compound C-18],O.D. Response of Various Inhibitors on C. autoethanogenum,[1]; [4],0.49
same,O.D. Response of Various Inhibitors on C. autoethanogenum,[1]; [5],0.44
same,O.D. Response of Various Inhibitors on C. autoethanogenum,[1]; [6],0.44
same,O.D. Response of Various Inhibitors on C. autoethanogenum,[1]; [7],1.16
same,O.D. Response of Various Inhibitors on C. autoethanogenum,[1]; 30.5 Hours,1.30
same,O.D. Response of Various Inhibitors on C. autoethanogenum,[1]; 47.5 Hours,1.74
same,O.D. Response of Various Inhibitors on C. autoethanogenum,[1]; 56 Hours,1.88
same,O.D. Response to Various Inhibitors,[1]; [4],0.49
same,O.D. Response to Various Inhibitors,[1]; [5],0.47
same,O.D. Response to Various Inhibitors,"[1]; 2.5 Hours, added 24 h after inoculation, listed as C-19",0.41
same,O.D. Response to Various Inhibitors,[1]; [6],0.44
same,O.D. Response to Various Inhibitors,[1]; [7],1.15
same,O.D. Response to Various Inhibitors,"[1]; 24.5 Hours, added 24 h after inoculation, listed as C-19",1.18
same,O.D. Response to Various Inhibitors,"[1]; 30.5 Hours, added 24 h after inoculation",1.32
same,O.D. Response to Various Inhibitors,"[1]; 30.5 Hours, added 24 h after inoculation, listed as C-19",1.28
same,O.D. Response to Various Inhibitors,"[1]; 47.5 Hours, added 24 h after inoculation",1.73
same,O.D. Response to Various Inhibitors,"[1]; 47.5 Hours, added 24 h after inoculation, listed as C-19",1.75
"O=C(O)/C=C/C(F)(F)F [G, 4,4,4-trifluorocrotonic acid]",Optical density valuation of C. tyrobutyricum,[2]; 100 ppm(m),+ (bacterial growth to an OD of approximately 1.8 or above)
same,Optical density valuation of C. tyrobutyricum,[2]; 500 ppm(m),+ (bacterial growth to an OD of approximately 1.8 or above)
same,Optical density valuation of C. tyrobutyricum,[2]; 1000 ppm(m),+ (bacterial growth to an OD of approximately 1.8 or above)
same,Optical density valuation of C. autoethanogenum,[3]; 10 ppm(m),+ (bacterial growth to an OD of approximately 2 or above)
same,Optical density valuation of C. autoethanogenum,[3]; 100 ppm(m),+ (bacterial growth to an OD of approximately 2 or above)
same,Optical density valuation of C. autoethanogenum,[3]; 500 ppm(m),+ (bacterial growth to an OD of approximately 2 or above)
same,Optical density valuation of C. autoethanogenum,[3]; 1000 ppm(m),+/− (to an optical density in a range of 0.5 to 1.5)
same,Optical density valuation of C. autoethanogenum,[3]; 5000 ppm(m),− (failure of bacterial growth to reach an optical density of approximately 0.5)
same,Optical density valuation of C. autoethanogenum,[3]; 10000 ppm(m),− (failure of bacterial growth to reach an optical density of approximately 0.5)
"CCOC(=O)/C=C(/C)N [H, ethyl 3-aminocrotonate]",Optical density valuation of C. autoethanogenum,[3]; 10 ppm(m),+ (bacterial growth to an OD of approximately 2 or above)
same,Optical density valuation of C. autoethanogenum,[3]; 100 ppm(m),+ (bacterial growth to an OD of approximately 2 or above)
same,Optical density valuation of C. autoethanogenum,[3]; 500 ppm(m),+ (bacterial growth to an OD of approximately 2 or above)
same,Optical density valuation of C. autoethanogenum,[3]; 1000 ppm(m),+ (bacterial growth to an OD of approximately 2 or above)
same,Optical density valuation of C. autoethanogenum,[3]; 5000 ppm(m),+ (bacterial growth to an OD of approximately 2 or above)
same,Optical density valuation of C. autoethanogenum,[3]; 10000 ppm(m),+ (bacterial growth to an OD of approximately 2 or above)
